ChEMBL document CHEMBL1201862, “PubChem BioAssay data set” (2004)
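1) Cells in 96-well plates. 2) Compound, 48 h, 5 concentrations. 3) Linear interpolation between surrounding doses. 4) Unreached endpoint = highest concentration. Abbreviation: GI50, concentration required for 50% inhibition of growth.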 Active and inactive are the calls of the source. No stated cut-off is given here; in the data, active = GI50 up to about 1.1 µM and inactive = higher.

Experiments:
Assay in all cases: NCI-60 cell line screen, 48 h
U-251 = system: U-251
SK-OV-3 = system: SK-OV-3
OVCAR-5 = system: OVCAR-5
786-0 = system: 786-0
SK-MEL-5 = system: SK-MEL-5
KM12 = system: KM12
A549 = system: A549
MOLT-4 = system: MOLT-4
K562 = system: K562
SF-539 = system: SF-539
M14 = system: M14
RXF 393 = system: RXF 393
NCI-H226 = system: NCI-H226
HOP-62 = system: HOP-62
RPMI-8226 = system: RPMI-8226
OVCAR-3 = system: OVCAR-3
EKVX = system: EKVX
SNB-19 = system: SNB-19
MCF7 = system: MCF7

Measured: GI50

Oc1cc(-c2ccccc2)c2ccccc2n1
inactive: U-251 69.5 µM | SK-OV-3 20.5 µM | OVCAR-5 64.4 µM | 786-0 > 100 µM | SK-MEL-5 16.6 µM | KM12 71.4 µM | A549 34.4 µM | MOLT-4 37.8 µM | K562 65.5 µM | SF-539 52.7 µM | M14 41.8 µM | RXF 393 36.2 µM | NCI-H226 25.8 µM | HOP-62 28.2 µM | RPMI-8226 67.6 µM

CCNC1C2(CCCCC2)NC(=O)C12CCCCC2 (stereo not given)
inactive: U-251 > 100 µM | SK-OV-3 > 100 µM | OVCAR-5 > 100 µM | 786-0 > 100 µM | SK-MEL-5 > 100 µM | KM12 > 100 µM | A549 > 100 µM | MOLT-4 > 100 µM | K562 > 100 µM | SF-539 > 100 µM | M14 > 100 µM | OVCAR-3 > 100 µM | RXF 393 > 100 µM | NCI-H226 > 100 µM | HOP-62 > 100 µM | RPMI-8226 > 100 µM | EKVX > 100 µM

O=C(O)c1ccc(S(=O)(=O)c2ccccc2)c([N+](=O)[O-])c1
inactive: U-251 > 100 µM | SK-OV-3 > 100 µM | OVCAR-5 > 100 µM | 786-0 > 100 µM | SK-MEL-5 > 100 µM | SNB-19 > 100 µM | KM12 > 100 µM | A549 > 100 µM | MOLT-4 > 100 µM | K562 > 100 µM | SF-539 > 100 µM | M14 > 100 µM | OVCAR-3 > 100 µM | RXF 393 > 100 µM | NCI-H226 > 100 µM | HOP-62 > 100 µM | RPMI-8226 > 100 µM | EKVX > 100 µM

CCOC(=O)C1=C(Nc2ccc(Br)cc2)OC/C1=N\NC(=O)c1ccccc1O
inactive: U-251 9.23 µM | SK-OV-3 12.8 µM | OVCAR-5 46.1 µM | 786-0 15 µM | SK-MEL-5 49.7 µM | SNB-19 10.9 µM | KM12 21.5 µM | A549 4.06 µM | MOLT-4 11.4 µM | K562 7.06 µM | SF-539 11.2 µM | M14 23.5 µM | OVCAR-3 21.4 µM | RXF 393 1.29 µM | NCI-H226 38.9 µM | HOP-62 11.2 µM | RPMI-8226 15 µM | EKVX 18.8 µM

O=C(CC(=O)Nc1ccc(Cl)cc1)NNCC(=O)Nc1nc(-c2ccccc2)cs1
inactive: U-251 > 100 µM | SK-OV-3 > 100 µM | 786-0 > 100 µM | SK-MEL-5 > 100 µM | SNB-19 > 100 µM | KM12 > 100 µM | A549 > 100 µM | MOLT-4 > 100 µM | K562 72.4 µM | SF-539 > 100 µM | M14 > 100 µM | OVCAR-3 > 100 µM | RXF 393 > 100 µM | NCI-H226 > 100 µM | HOP-62 > 100 µM | RPMI-8226 > 100 µM | EKVX > 100 µM

CCCCCCCCCCCCC(CCCCCCCCCCCC)OP(=O)(O)O
inactive: U-251 34 µM | SK-OV-3 > 100 µM | OVCAR-5 > 100 µM | 786-0 > 100 µM | SK-MEL-5 > 100 µM | SNB-19 91.6 µM | KM12 > 100 µM | A549 > 100 µM | MOLT-4 59.2 µM | K562 62.2 µM | SF-539 46.2 µM | M14 > 100 µM | OVCAR-3 > 100 µM | RXF 393 > 100 µM | NCI-H226 75.9 µM | HOP-62 > 100 µM | RPMI-8226 56.6 µM | EKVX > 100 µM

COC(=O)C1CCc2c1c(=O)n1c([nH]c3ccccc31)c2C#N (stereo not given)
inactive: U-251 > 100 µM | SK-OV-3 > 100 µM | OVCAR-5 > 100 µM | 786-0 > 100 µM | SK-MEL-5 > 100 µM | SNB-19 > 100 µM | KM12 > 100 µM | A549 > 100 µM | K562 > 100 µM | SF-539 > 100 µM | M14 > 100 µM | OVCAR-3 > 100 µM | RXF 393 > 100 µM | NCI-H226 > 100 µM | HOP-62 > 100 µM | RPMI-8226 > 100 µM | EKVX > 100 µM

O=C(O)C1C2CCC(O2)C1C(=O)N1CCCCC1 (stereo not given)
inactive: U-251 4.2 µM | SK-OV-3 15.7 µM | OVCAR-5 26.5 µM | 786-0 4.16 µM | SK-MEL-5 13.8 µM | SNB-19 15.5 µM | KM12 16.2 µM | A549 22.8 µM | MOLT-4 5.06 µM | SF-539 9.4 µM | M14 12.7 µM | OVCAR-3 1.93 µM | RXF 393 2.2 µM | NCI-H226 5.09 µM | HOP-62 12.7 µM | RPMI-8226 3.26 µM | EKVX 4.02 µM

CC(C)NC(C)Cc1ccccc1 (stereo not given)
inactive: U-251 > 100 µM | SK-OV-3 > 100 µM | OVCAR-5 > 100 µM | 786-0 > 100 µM | SK-MEL-5 > 100 µM | SNB-19 > 100 µM | KM12 > 100 µM | A549 > 100 µM | K562 > 100 µM | SF-539 > 100 µM | M14 > 100 µM | OVCAR-3 > 100 µM | RXF 393 > 100 µM | NCI-H226 > 100 µM | HOP-62 > 100 µM | RPMI-8226 > 100 µM | EKVX > 100 µM

CCC(=O)N/N=C(\C=C\c1cccc(O)c1)c1sc(Nc2ccc(C)cc2[N+](=O)[O-])nc1C
inactive: U-251 > 100 µM | SK-OV-3 > 100 µM | OVCAR-5 > 100 µM | 786-0 > 100 µM | SK-MEL-5 > 100 µM | SNB-19 > 100 µM | KM12 > 100 µM | A549 > 100 µM | MOLT-4 > 100 µM | K562 > 100 µM | SF-539 32.7 µM | M14 > 100 µM | OVCAR-3 71.1 µM | RXF 393 10.8 µM | NCI-H226 > 100 µM | HOP-62 > 100 µM | RPMI-8226 > 100 µM | EKVX > 100 µM

CC1C2CC(CC2(C)O)C1(C)C (stereo not given)
inactive: U-251 > 100 µM | SK-OV-3 > 100 µM | OVCAR-5 > 100 µM | 786-0 > 100 µM | SK-MEL-5 > 100 µM | SNB-19 > 100 µM | KM12 > 100 µM | A549 > 100 µM | MOLT-4 > 100 µM | MCF7 > 100 µM | K562 > 100 µM | SF-539 > 100 µM | M14 > 100 µM | OVCAR-3 > 100 µM | RXF 393 > 100 µM | NCI-H226 > 100 µM | HOP-62 > 100 µM | EKVX > 100 µM
